Test results taken from patent US20200352201A1, “METHOD OF VACUUM […] WITH PEROXYC[…] SOLUTIONS” (ZEE COMPANY, INC., priority 2019, published 2020).

Tests used:
[1] = Vacuum infusing boneless beef parts, organoleptic shelf life of the ground product; conditions: vacuum tumbled about 15 minutes at about -0.4 bar, stored at about 4° C., first failure of duplicates
Description: Samples of beef in an amount of about 1 pound were prepared from boneless beef parts. Each sample was provided in a vacuum container of a vacuum tumbler in the presence of the antimicrobial solution (peroxyacetic acid (“PAA”) or peroxylactic acid (“PLA”)) provided in Table 2, with the control subjected to the same volume of sterile water. The pressure was reduced in the vacuum tumbler to about −0.4 bar, and the contents were rotated in the vacuum-tumbler while under pressure for a period of time of about 15 minutes. Pressure was then returned to atmospheric pressure and the contents of the vacuum container were subjected to grinding and then stored in a sealed plastic bag at about 4° C. The ground product was evaluated daily for appearance and order until reaching failure by abnormal coloration and/or odor. The Control and each microbial concentration sample was performed in duplicate, with the first date of organoleptic failure for the duplicate samples reported in Table 1.

[2] = Vacuum infusing boneless poultry parts, organoleptic shelf life of the ground product; conditions: vacuum tumbled about 15 minutes at about -0.4 bar, stored at about 4° C., first failure of duplicates
Description: Samples of poultry in an amount of about 1 pound were prepared from boneless poultry parts. Each sample was provided in a vacuum container of a vacuum tumbler in the presence of the antimicrobial solution (peroxyacetic acid (“PAA”) or peroxylactic acid (“PLA”)) provided in Table 1, with the control subjected to the same volume of sterile water. The pressure was reduced in the vacuum tumbler to about −0.4 bar, and the contents were rotated in the vacuum-tumbler while under pressure for a period of time of about 15 minutes. Pressure was then returned to atmospheric pressure and the contents of the vacuum container were subjected to grinding and then stored in a sealed plastic bag at about 4° C. The ground product was evaluated daily for appearance and order until reaching failure by abnormal coloration and/or odor. The Control and each microbial concentration sample was performed in duplicate, with the first date of organoleptic failure for the duplicate samples reported in Table 1.

Compound | Days to Organoleptic Failure ([1]; 100 ppm) [days] | Days to Organoleptic Failure ([1]; 250 ppm) [days] | Days to Organoleptic Failure ([1]; 500 ppm) [days] | Days to Organoleptic Failure ([1]; 1000 ppm) [days] | Days to Organoleptic Failure ([2]; 100 ppm) [days] | Days to Organoleptic Failure ([2]; 250 ppm) [days] | Days to Organoleptic Failure ([2]; 500 ppm) [days] | Days to Organoleptic Failure ([2]; 1000 ppm) [days]
CC(O)C(=O)OO (stereo not shown) [PLA, peroxylactic acid] | 11 | 13 | 15 | 17 | 11 | 14 | 16 | 19
peroxyacetic acid [PAA] | 11 | 13 | 15 | 17 | 11 | 13 | 17 | 19
